This note sets out measurements from US10683292B2, “Purine and 3-deazapurine analogues as choline kinase inhibitors” (NERVIANO MEDICAL SCIENCES S.R.L., priority 2016, dated 2020).

Experiment [1] has as its system MDA-MB-468 breast cancer cell line. Nature of the experiment: Phosphocholine determination assay (mechanism of action in cells), cell extracts. The following applies: 24 h. The experiment is classed as cell-based.
Description: Phosphocholine Determination Assay (Mechanism of Action in Cells)
After 24 h, fresh medium and a compound of general formula (I) were added for further 24 h. At the end of the treatment, the cells were trypsinised, counted and the diameter was determined using a Coulter Counter (Multisizer 3, Beckman). […] Then, 0.7 mL ice-cold absolut EtOH were added (final ratio EtOH/H2O 70:30, v/v). After 24 h at −20° C. the samples were sonicated and centrifuged at 14,000×g for 30 minutes.
Phosphocholine concentration levels were assessed in the supernatants using an Ultra High Pressure Liquid Chromatography system (UPLC®, Waters) coupled with a triple quadrupoles mass spectrometer (TQD, Waters) operating in single reaction monitoring mode (SRM). Analyses were performed using Acquity HSS T3 column 2.1×50 mm column, 1.8 μm particle size. […] Waters TQD triple quad mass spectrometer was equipped with an electrospray ion source operating in the positive mode. Source parameters were set as follows: desolvation gas flow 1000 L/h, cone gas flow 50 L/h; collision gas flow 0.2 mL/min; source temperature 130° C.; desolvation temperature 450° C. Dimethyl glicine (DMG) was added to samples as internal standard at 100 μM final concentration. […] The concentration of PCho in the sample was normalized to the total volume of cells (number cells×volume of single cell considered like a sphere).
Another experiment addresses T1, Δ49N-hChoKα (Homo sapiens, UniProt P35790).
T1 construct: cDNA fragment 362-1534, corresponding to aminoacids 50-457; GST (N, cleaved yes); Prescission Protease recognition site (N, cleaved yes); made in house; host or cells: Escherichia coli BL21pLysS (DE3)
Nature of the experiment: Biochemical kinase inhibition assay (Kinase-Glo Luminescent Kinase Assay) on Δ49N-hChoKα. Background: In Kinase-Glo more light means more ATP remaining.

A further experiment has as its target T2, hChoKβ FL (Homo sapiens, UniProt Q9Y259).
T2 construct: hChoKβ full length (FL), corresponding to aminoacids 2-395; GST (N, cleaved yes); Prescission Protease recognition site (N, cleaved yes); made in house; host or cells: Escherichia coli BL21pLysS (DE3)
Nature of the experiment: Biochemical kinase inhibition assay (Kinase-Glo Luminescent Kinase Assay) on hChoKβ FL. The following applies: ATP 5 μM, choline 20 μM, 60 minutes at rt; read-out: IC50 ChoKβ.

In experiment [2] the test system is MDA-MB-468 breast cancer cell line. Nature of the experiment: Phosphocholine determination in cell medium culture (cell supernatants). The experiment is classed as cell-based. The following applies: compound 2 μM. The procedure:
For the determination of phosphocholine in cells, extracts were prepared according to ref. Cancer Res., 2005, 65, 9369-9376 with some modifications. MDA-MB-468 breast cancer cell line was plated at 1×10^6 cells in 10 cm petri dish culture in RPMI, 10% FCS culture medium. After 24 h, fresh medium and a compound of general formula (I) were added for further 24 h. At the end of the treatment, the cells were trypsinised, counted and the diameter was determined using a Coulter Counter (Multisizer 3, Beckman). Cells were washed twice with ice-cold physiologic saline solution and 2×10^6 cells resuspended in 0.3 mL ice-cold twice-distilled water. […]
Phosphocholine concentration levels were assessed in the supernatants using an Ultra High Pressure Liquid Chromatography system (UPLC®, Waters) coupled with a triple quadrupoles mass spectrometer (TQD, Waters) operating in single reaction monitoring mode (SRM). […] The monitored transitions were m/z 184.00 to 85.7 (collision energy 24 eV) for phosphocholine and m/z 103.0 to 57.5 (collision energy 13 eV) for DMG. […]
For the determination of phosphocholine in cell medium culture, cell culture supernatants (500 μL) were denatured by adding 100 μL of trichloroacetic acid (TCA) 1M containing dimethyl glicine (DMG) (100 μM), used as internal standard. […] The supernatants were subsequently analyzed for phosphocholine determination.

Setting [3] is: ATP 5 μM, choline 5 μM, 60 minutes at rt, read-out: IC50 ChoKα.

Read-outs that look alike come from different tables or passages of the source.

T1 sequence (P35790 50-457, stated change not applied): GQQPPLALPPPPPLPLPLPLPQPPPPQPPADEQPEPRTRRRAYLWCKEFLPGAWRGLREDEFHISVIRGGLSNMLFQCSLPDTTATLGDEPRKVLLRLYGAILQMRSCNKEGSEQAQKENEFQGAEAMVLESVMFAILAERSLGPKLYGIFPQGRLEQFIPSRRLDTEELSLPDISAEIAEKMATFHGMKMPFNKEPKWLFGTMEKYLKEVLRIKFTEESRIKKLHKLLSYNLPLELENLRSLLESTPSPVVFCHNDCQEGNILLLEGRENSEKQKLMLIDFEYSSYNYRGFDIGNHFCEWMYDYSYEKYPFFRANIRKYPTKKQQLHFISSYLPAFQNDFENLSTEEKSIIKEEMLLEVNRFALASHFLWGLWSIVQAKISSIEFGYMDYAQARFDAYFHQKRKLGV
T2 sequence (Q9Y259 2-395): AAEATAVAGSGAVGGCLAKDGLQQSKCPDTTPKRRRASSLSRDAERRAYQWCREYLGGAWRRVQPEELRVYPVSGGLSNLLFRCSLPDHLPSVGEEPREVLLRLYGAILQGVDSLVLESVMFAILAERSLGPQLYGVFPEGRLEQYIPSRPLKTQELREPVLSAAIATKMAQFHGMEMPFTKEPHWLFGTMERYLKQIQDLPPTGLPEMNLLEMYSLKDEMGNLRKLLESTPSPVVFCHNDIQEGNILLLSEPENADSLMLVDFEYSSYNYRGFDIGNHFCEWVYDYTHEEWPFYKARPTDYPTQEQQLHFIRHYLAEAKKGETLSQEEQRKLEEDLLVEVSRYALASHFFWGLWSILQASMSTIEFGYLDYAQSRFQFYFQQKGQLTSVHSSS
Description for hChoKβ FL: The biochemical activity of compounds against Δ49N-ChoKα and ChoKβ FL were determined using the Kinase-Glo™ Luminescent Kinase Assay (Promega cat. V6711).
Compounds were 3-fold serially diluted from 10 to 0.0005 μM, then incubated for 60 minutes at rt in the presence of ATP 5 μM, choline (5 μM for ChoKα and 20 μM for ChoKβ) and enzyme in a final volume of 19 μL of kinase buffer (50 mM Hepes pH 7.5, 10 mM MgCl2, 1 mM DTT, 3 μM Na3VO4 and 0.2 mg/mL BSA). The final concentration of DMSO was 1%.
At the end of the incubation, an amount of 19 μL of KinaseGlo Reagent was added to each well to stop the reaction and after 30 minutes the luminescence signal was measured using ViewLux reader (Perkin Elmer).
The data per each molecule are analyzed by an internally customized version of the SW package “Assay Explorer” which provides sigmoidal fittings of the ten-dilution curves for IC50 determination using a 4 parameter logistic equation: y=bottom+(top−bottom)/(1+10^((log IC50−x)*slope)) where x is the logarithm of the inhibitor concentration, y is the response; y starts at bottom and goes to top with a sigmoid shape.

`CN1CCc2nc(NC(=O)[C@H]3CC[C@@H](n4cnc5c(N)nc(F)nc54)CC3)sc2C1` [cpd 179, cis-4-(6-amino-2-fluoro-9H-purin-9-yl)-N-(5-methyl-4,5,6,7-tetrahydro[1,3]thiazolo[5,4-c]pyridin-2-yl)cyclohexanecarboxamide]: the “[Phosphocholine] in MDA-MB-468 cell extracts” value worked out at 6.40 mM in experiment [1] (compound 0.08 μM), 3.27 mM in experiment [1] (compound 0.4 μM) and 0.69 mM in experiment [1] (compound 2 μM).

Regarding `Nc1nc(Cl)nc2c1ncn2[C@H]1CC[C@@H](C(=O)Nc2ncc(Cl)s2)CC1` [cpd 114, cis-4-(6-amino-2-chloro-9H-purin-9-yl)-N-(5-chloro-1,3-thiazol-2-yl)cyclohexanecarboxamide], the IC50 – broadly, the concentration that inhibits the measured activity by half – on Δ49N-hChoKα (setting [3]) was 34 nM; on hChoKβ FL, 4690 nM. In addition, the inhibition (in general, how much of the control response was suppressed) at 0.4 µM in experiment [1] (Homo sapiens, MDA-MB-468, compound 0.4 μM, vs untreated control) worked out at 37%. Further, the inhibition at 2 µM in experiment [1] (Homo sapiens, MDA-MB-468, compound 2 μM, vs untreated control) turned out to be 76%; in experiment [2] (Homo sapiens, MDA-MB-468, vs untreated control), 66%. The figures for the “[Phosphocholine] in MDA-MB-468 cell extracts” value in experiment [1] (compound 0.4 μM) and in experiment [1] (compound 2 μM) were 5.21 mM and 1.98 mM, respectively. In experiment [2], the “[Phosphocholine] in MDA-MB-468 cell supernatants” value was found to be 2.50 µM.

As for `Nc1nc(Cl)nc2c1ncn2[C@H]1CC[C@@H](C(=O)Nc2nc3ccc(Br)cc3s2)CC1` [cpd 175, cis-4-(6-amino-2-chloro-9H-purin-9-yl)-N-(6-bromo-1,3-benzothiazol-2-yl)cyclohexanecarboxamide], the IC50 was 49 nM on Δ49N-hChoKα (setting [3]) and greater than 10000 nM on hChoKβ FL.

For the molecule `COc1cccc(NC(=O)[C@H]2CC[C@@H](n3cnc4c(N)nc(I)nc43)CC2)c1` [cpd 41, cis-4-(6-amino-2-iodo-9H-purin-9-yl)-N-(3-methoxyphenyl)cyclohexanecarboxamide], the IC50 on Δ49N-hChoKα (setting [3]) was 441 nM; on hChoKβ FL it was greater than 10000 nM.

For `CN(C)c1ccc2nc(NC(=O)[C@H]3CC[C@@H](n4cnc5c(N)nc(Cl)nc54)CC3)sc2c1` [cpd 165, cis-4-(6-amino-2-chloro-9H-purin-9-yl)-N-[6-(dimethylamino)-1,3-benzothiazol-2-yl]cyclohexanecarboxamide], the IC50 was 60 nM at Δ49N-hChoKα (setting [3]) and greater than 10000 nM on hChoKβ FL.

Take `COC(=O)Cc1ccc2nc(NC(=O)[C@H]3CC[C@@H](n4cnc5c(N)nc(Cl)nc54)CC3)sc2c1` [cpd 174, methyl [2-({[cis-4-(6-amino-2-chloro-9H-purin-9-yl)cyclohexyl]carbonyl}amino)-1,3-benzothiazol-6-yl]acetate]: the IC50 is 41 nM on Δ49N-hChoKα (setting [3]) and greater than 10000 nM on hChoKβ FL.

For the molecule `Nc1nc(Cl)nc2c1ncn2[C@H]1CC[C@@H](NC(=O)c2nc3ccccc3s2)CC1` [cpd 140, N-[cis-4-(6-amino-2-chloro-9H-purin-9-yl)cyclohexyl]-1,3-benzothiazole-2-carboxamide], the IC50 on Δ49N-hChoKα (setting [3]) was 514 nM; at hChoKβ FL, greater than 10000 nM.

Consider `COc1cccc(C(=O)N[C@H]2CC[C@@H](n3cnc4c(N)nc(Cl)nc43)CC2)c1` [cpd 144, N-[cis-4-(6-amino-2-chloro-9H-purin-9-yl)cyclohexyl]-3-methoxybenzamide], for which the IC50 on Δ49N-hChoKα (setting [3]) is 341 nM; on hChoKβ FL, greater than 10000 nM.

Regarding `COc1cccc(NC(=O)[C@H]2CC[C@@H](n3cnc4c(N)nc(C5CC5)nc43)CC2)c1` [cpd 87, cis-4-(6-amino-2-cyclopropyl-9H-purin-9-yl)-N-(3-methoxyphenyl)cyclohexanecarboxamide], the IC50 was 974 nM at Δ49N-hChoKα (setting [3]) and greater than 10000 nM at hChoKβ FL.

For `Cc1cc2nc(NC(=O)[C@H]3CC[C@@H](n4cnc5c(N)nc(Cl)nc54)CC3)sc2cc1C` [cpd 93, cis-4-(6-amino-2-chloro-9H-purin-9-yl)-N-(5,6-dimethyl-1,3-benzothiazol-2-yl)cyclohexanecarboxamide], the concentration for half-maximal inhibition (IC50) at Δ49N-hChoKα (setting [3]) was determined as 48 nM; on hChoKβ FL, 6080 nM.

As for `Nc1nc(Cl)nc2c1ncn2[C@H]1CC[C@@H](C(=O)Nc2nc3cc(Cl)ccc3o2)CC1` [cpd 94, cis-4-(6-amino-2-chloro-9H-purin-9-yl)-N-(5-chloro-1,3-benzoxazol-2-yl)cyclohexanecarboxamide], the IC50 was determined as 178 nM at Δ49N-hChoKα (setting [3]) and 5620 nM on hChoKβ FL.

For `Nc1nc(Cl)nc2c1ncn2[C@H]1CC[C@@H](C(=O)Nc2nc3ccc(Cl)cc3s2)CC1` [cpd 90, cis-4-(6-amino-2-chloro-9H-purin-9-yl)-N-(6-chloro-1,3-benzothiazol-2-yl)cyclohexanecarboxamide], the IC50 is 28 nM at Δ49N-hChoKα (setting [3]) and greater than 10000 nM on hChoKβ FL.

Consider `CC(C)(C)OC(=O)N1[C@H]2CC[C@@H]1c1sc(NC(=O)[C@H]3CC[C@@H](n4cnc5c(N)nc(Cl)nc54)CC3)nc1C2` [cpd 187, tert-butyl (5S,8R)-2-({[cis-4-(6-amino-2-chloro-9H-purin-9-yl)cyclohexyl]carbonyl}amino)-5,6,7,8-tetrahydro-4H-5,8-epiminocyclohepta[d][1,3]thiazole-9-carboxylate], for which the IC50 on Δ49N-hChoKα is 29 nM; at hChoKβ FL, 5630 nM.
